Columns and labels:
[1] = tested on: flies heterozygous for the Drosophila presenilin gene; test: Learning during training in Drosophila model of Alzheimer's disease with reduced presenilin; format: in vivo; set-up: age dependent impairment in learning during training: dose or concentration left out as unconfirmed
Description: FIG. 10 is a graph showing the effect of MPEP on learning during training in a Drosophila model of Alzheimer's disease expressing reduced amounts of presenilin. All flies have reduced presenilin level. Black bars are 5 day old flies raised on kept on control food (N=18) which display learning during training (p<0.05). […] This impairment is prevented by treatment with MPEP.
Using methods similar to those described in Examples 1 and 2, we evaluated the effect of MPEP on various aspects of learning and memory in a Drosophila model of Alzheimer's disease with reduced expression of presenilin.
Flies in all three groups are heterozygous for the Drosophila presenilin gene. Each group has one wild type presenilin gene and one null presenilin gene, resulting from a deletion at the presenilin locus or a mutation at the presenilin locus. Learning during training was assayed in flies kept on control food until tested at five days of age, kept on control food until tested at 30 days of age or kept on control food for the first five days after eclosion then switched to food containing 200 μg/ml of MPEP until being moved back to control food the day before being tested at 30 days of age. […] This age-dependent deficit in learning during training is apparent in ten mutant presenilin Drosophila lines evaluated. In flies treated with MPEP, learning during training was restored at 30 days of age (p<0.05).

[2] = tested on: Rescue (dFMR1-3+wild type rescue fragment) flies; test: Naive courtship behavior (courtship index toward virgin female), Rescue flies; format: in vivo, Drosophila melanogaster; conditions: 20-day-old
[3] = tested on: Rescue (dFMR1-3+wild type rescue fragment) flies; test: Conditioned courtship: learning during training, Rescue flies; format: in vivo, Drosophila melanogaster; conditions: MPEP 200 μg/ml in development, adulthood or both
Description: The role of dFMR1 in learning during training and immediate recall. The flies used were w1118 (the background stock from which the mutation was derived), dFMR1-3 (the mutation lacking dFMR1 expression), Rescue (dFMR1-3+wild type rescue fragment) and FS (frame shift, dFMR1-3+frame shifted rescue fragment) all from Dockendorff et al, 2002. To assess learning during training male flies are placed in a training chamber with a previously mated female for one hour. The amount of time the male spent courting in the initial ten-minute interval was compared to the amount of time the male spent courting the female target in the final ten-minute interval (FIG. 1). […] It is important to note that the level of courtship behavior towards the previously mated female is similar between the two mutant groups and the w1118 and Rescue groups. […] This is important to note, because without actively courting, the male fly cannot be trained (Tompkins et al. 1982; 1983).
Learning during training. In order to assess learning during training, the male flies were placed in a training chamber with a previously mated female for one hour. The amount of time the male spent courting in the first ten-minute interval was compared to the amount of time the male spent courting the female target in the last ten-minute interval (FIG. 4A).
Behavioral Training and Testing. […]

[4] = tested on: FS (dFMR1-3+frame shifted rescue fragment) flies; test: Discrimination between virgin and previously mated females, FS flies; format: in vivo, Drosophila melanogaster; conditions: 20-day-old; MPEP 200 μg/ml in development and adulthood (M-M)
Experimental: Short-term memory. The model was further extended to encompass short-term memory at 60 minutes after training. After the one hour training session with a previously mated female, the female is removed and the male is placed in a holding chamber for 60 minutes, then subsequently placed in a testing chamber with a virgin female target to assess short-term memory (FIG. 4C). […] CT-CT FS flies court just as vigorously at 60 minutes after training as naive CT-CT FS flies. […] The FS groups that were treated with MPEP in development alone, adulthood alone or in both development and adulthood display experience dependent reduction of courtship activity at 60 minutes after training when compared to group matched naives M-M FS, p<0.0001, CT-M FS, p<0.0001 and M-CT FS, p<0.0001. […] Additionally, flies were tested for ability to discriminate between virgin and previously mated females (FIG. 4D).
Flies were also tested for ability to discriminate between virgin and previously mated females in FIG. 9C.

[5] = tested on: flies heterozygous for the Drosophila presenilin gene; test: Short term memory in presenilin mutant Drosophila model of Alzheimer's disease; format: in vivo; conditions: 30 days of age; data not shown
Description: We have also discovered that there is a deficit in long term memory in these flies as young adults, and there is also an age dependent deficit in these flies in short term memory at 30 days of age (data not shown). This age dependent deficit in short term memory is rescued by treatment with LY341495. Additionally, this age dependent deficit is rescued by lowering IP3R expression by making these presenilin mutant lines heterozygous for an IP3R deletion (data not shown).

Row | Structure (SMILES) | age dependent impairment in learning during training ([1]; 30 day old, food supplemented MPEP from day 5) | learning during training ([1]; 30 days of age, food containing 200 μg/ml of MPEP from day 5, p<0.05) | naive courtship activity ([2]; MPEP (86.6 μM) in adulthood only (CT-M)) | naive courtship activity ([2]; MPEP (86.6 μM) in development then M or CT food as adults) | learning during training (initial vs final courtship levels) ([3]; 20-day-old) | learning during training ([3]; 5 day old) | time courting virgin female compared to previously mated female (discrimination) [4] | age dependent deficit in short term memory [5]
1 | Cc1cccc(C#Cc2ccccc2)n1 [MPEP, 2-methyl-6-(phenylethynyl)pyridine] | prevented | restored | depressed relative to CT-CT Rescue flies | courted as vigorously as CT-CT Rescues flies | significant depression from the initial to final intervals | does not adversely affect learning during training | spent significantly more time courting virgin female targets | 
2 | N[C@](CC1c2ccccc2Oc2ccccc21)(C(=O)O)[C@H]1C[C@@H]1C(=O)O [LY341495, (2S)-2-amino-2-[(1S,2S)-2-carboxycycloprop-1-yl]-3-(xanth-9-yl) propionic acid] |  |  |  |  |  |  |  | rescued
